Experimental data: patent publication US20250144067A1, “PERSONALIZED STARVATION THERAPY FOR CANCER” (Faeth Therapeutics, Inc., priority 2021, published 2025)
Where a name gives a salt, the structure may show the parent alone. Numbered stars: 1 amine (or outer) side, 2 acyl side, 3 side chain; on linkers, the order of the positions; unused ones are H or OH. Bridge positions count the residues as written; N and C are the ends. Square brackets hold non-standard residues; d marks the D form. Peptide text beside a SMILES is read from it. * marks the point of attachment. hTyr(3S-OH,4S-OH,3'-OSO3H) = N[C@H](C(=O)O)[C@H](O)[C@@H](O)c1ccc(O)c(OS(=O)(=O)O)c1; Orn(4R-OH,5R-OH) = O=C([C@H](C[C@@H](O)[C@@H](O)N[*:3])N[*:1])[*:2]; Pro(3S-OH,4S-Me) = C[C@H]1CN[C@H](C(=O)O)[C@H]1O; X1 = CCCCCOc1ccc(-c2cc(-c3ccc(C(=O)*)cc3)no2)cc1; Gln(3R-OH) = NC(=O)C[C@@H](O)[C@H](N)C(=O)O; Hyp = O=C(O)[C@@H]1C[C@@H](O)CN1

Key:
[1] = system: NCI-H292 lung cancer cells; assay: FDA drug screening, complete media vs cholesterol-free media with simvastatin (TABLE 2); type: cell-based, human; conditions: for Cholesterol-free media + simvastatin (0.04 μM) / Complete Media: NCI-H292 cells
[2] = system: NCI-H292 lung cancer cells; assay: FDA drug screening, complete media vs cholesterol-free media without statin (TABLE 1); type: cell-based, human
[3] = FDA library drug in cholesterol-free media with simvastatin 0.04 μM
[4] = FDA library drug in complete media
[5] = complete media vs cholesterol-free media + simvastatin (0.04 μM), >0 enhanced anti-cancer activity, about 0 neutral, <0 antagonist
[6] = Complete minus Cholesterol-free, greater than 0 enhanced anti-cancer activity, about 0 neutral, below 0 antagonists
[7] = NCI-H292 cells in cholesterol-free media without statin
[8] = NCI-H292 cells in complete media
[9] = cholesterol-free media with simvastatin 0.04 μM, FDA drug library screen (TABLE 2)
[10] = complete media, FDA drug library screen (TABLE 2)
[11] = complete media minus cholesterol-free media + simvastatin (0.04 μM), >0 enhanced anti-cancer activity, about 0 neutral, <0 antagonist
[12] = Complete minus Cholesterol-free, >0 enhanced anti-cancer activity, about 0 neutral, <0 antagonist
[13] = NCI-H292 cells, cholesterol-free media without statin
[14] = cholesterol-free media with simvastatin 0.04 μM, cell growth value in FDA drug screen
[15] = complete media, cell growth value in FDA drug screen
[16] = complete media minus cholesterol-free media + simvastatin, >0 enhanced anti-cancer activity, about 0 neutral, <0 antagonist
[17] = FDA drug library screen, cholesterol-free media with simvastatin 0.04 μM
[18] = FDA drug library screen, complete media
[19] = complete media vs cholesterol-free media + simvastatin (0.04 μM), […]
[20] = Complete minus Cholesterol-free, […]
[21] = NCI-H292 cells, cholesterol-free media without statin, FDA drug library screen
[22] = NCI-H292 cells, complete media, FDA drug library screen
[23] = NCI-H292 cells, FDA drug library screen, cholesterol-free media without statin
[24] = NCI-H292 cells, FDA drug library screen, complete media
[25] = Complete minus Cholesterol-free, greater than 0 enhanced anti-cancer activity, about 0 neutral, below 0 antagonist
[26] = drug in cholesterol-free media with simvastatin 0.04 μM
[27] = complete vs cholesterol-free media, greater than 0 enhanced anti-cancer activity, about 0 neutral, below 0 antagonists
[28] = complete vs cholesterol-free media, >0 enhanced anti-cancer activity, about 0 neutral, <0 antagonist

SMILES | Cholesterol-free media + simvastatin (0.04 μM) [1, 3] | Complete Media [1, 4] | Difference [1, 5] | Difference [2, 12] | Cholesterol-free [2, 13] | Complete ([2]; NCI-H292 cells, complete media) | Cholesterol-free [2, 21] | Complete [2, 22] | other results
COc1c2occc2cc2ccc(=O)oc12 [Methoxsalen] | 1.34 | 0.9575 | −0.38 |  |  |  |  |  | Difference [2, 6]: −0.72; Cholesterol-free [2, 7]: 1.514; Complete [2, 8]: 0.7902
CN1C(CCl)Nc2cc(Cl)c(S(N)(=O)=O)cc2S1(=O)=O (centres unmarked) [Methyclothiazide] |  |  |  | −0.24 | 1.096 | 0.856 |  |  | Cholesterol-free media + simvastatin (0.04 μM) [1, 9]: 1.147; Complete Media [1, 10]: 1.081; Difference [1, 11]: −0.07
COC(=O)c1ccccc1O [Methyl Salicylate] |  |  |  | −0.24 | 0.9648 | 0.722 |  |  | Cholesterol-free media + simvastatin (0.04 μM) [1, 14]: 0.8236; Complete Media [1, 15]: 0.8959; Difference [1, 16]: 0.07
COC(=O)CCC(=O)CN [Methyl aminolevulinate (hydrochloride)] |  |  |  |  |  |  |  |  | Cholesterol-free media + simvastatin (0.04 μM) [1, 17]: 1.272; Complete Media [1, 18]: 1.627; Difference [1, 16]: 0.35; Difference [2, 6]: −0.59; Cholesterol-free [2, 7]: 1.473; Complete [2, 8]: 0.886
CC[N+](C)(CC)CCOC(=O)C(O)(c1ccccc1)c1ccccc1 [Methylbenactyzium Bromide] | 1.651 | 1.081 |  |  |  |  | 0.9201 | 0.945 | Difference [1, 19]: −0.57; Difference [2, 20]: 0.02
C/C1=C2/[N-][C@H]([C@H](CC(N)=O)[C@@]2(C)CCC(=O)NC[C@@H](C)OP(=O)([O-])O[C@H]2[C@@H](O)[C@@H](n3cnc4cc(C)c(C)cc43)O[C@@H]2CO)[C@]2(C)N=C(/C(C)=C3N=C(/C=C4N=C1[C@@H](CCC(N)=O)C\4(C)C)[C@@H](CCC(N)=O)[C@]\3(C)CC(N)=O)[C@@H](CCC(N)=O)[C@]2(C)CC(N)=O.[CH3-].[Co+3] [Methylcobalamin] | 1.749 | 0.8589 |  |  |  |  |  |  | Difference [1, 19]: −0.89; Difference [2, 20]: −0.18; Cholesterol-free [2, 23]: 1.021; Complete [2, 24]: 0.8435
CN(C)c1ccc2nc3ccc(=[N+](C)C)cc-3sc2c1 [Methylene blue (trihydrate)] |  |  |  |  |  |  |  |  | Cholesterol-free media + simvastatin (0.04 μM) [1, 14]: 0.3366; Complete Media [1, 15]: 0.39; Difference [1, 16]: 0.05; Difference [2, 25]: −0.18; Cholesterol-free [2, 23]: 0.4339; Complete [2, 24]: 0.2574
C[C@H]1C[C@@H]2[C@H]([C@@H](O)C[C@@]3(C)[C@H]2CC[C@]3(O)C(=O)COC(=O)CCC(=O)O)[C@@]2(C)C=CC(=O)C=C12 [Methylprednisolone succinate] |  |  | −0.21 |  | 0.8243 | 0.4661 |  |  | Cholesterol-free media + simvastatin (0.04 μM) [1, 26]: 0.9151; Complete Media ([1]; drug in complete media): 0.7051; Difference [2, 27]: −0.36
C[C@H]1C[C@@H]2[C@H]([C@@H](O)C[C@@]3(C)[C@H]2CC[C@]3(O)C(=O)CO)[C@@]2(C)C=CC(=O)C=C12 [Methylprednisolone] |  |  |  | −0.22 | 0.8356 | 0.6178 |  |  | Cholesterol-free media + simvastatin (0.04 μM) [1, 17]: 1.016; Complete Media [1, 18]: 1.212; Difference [1, 16]: 0.20
Cc1cc(=O)[nH]c(=S)[nH]1 [Methylthiouracil] |  |  | −0.21 |  | 1.055 | 0.7083 |  |  | Cholesterol-free media + simvastatin (0.04 μM) [1, 26]: 1.089; Complete Media ([1]; drug in complete media): 0.882; Difference [2, 27]: −0.35
Cc1cc2c(cc1S(N)(=O)=O)S(=O)(=O)CCC2 [Meticrane] | 1.393 | 0.8316 | −0.56 | −0.25 | 1.363 | 1.109 |  |  | 
CC(=O)Oc1c(C)cc(OCC(O)CNC(C)C)c(C)c1C (centres unmarked) [Metipranolol hydrochloride] |  |  |  | 0.05 |  |  | 0.8441 | 0.893 | Cholesterol-free media + simvastatin (0.04 μM) [1, 14]: 0.8039; Complete Media [1, 15]: 0.8617; Difference [1, 16]: 0.06
CN1CCCC(CC2c3ccccc3Sc3ccccc32)C1 (centres unmarked) [Metixene hydrochloride hydrate] |  |  | −0.17 | −0.25 | 1.293 | 1.044 |  |  | Cholesterol-free media + simvastatin (0.04 μM) [1, 26]: 1.206; Complete Media ([1]; drug in complete media): 1.036
Cc1ccccc1N1C(=O)c2cc(S(N)(=O)=O)c(Cl)cc2NC1C (centres unmarked) [Metolazone] |  |  | −0.15 |  |  |  |  |  | Cholesterol-free media + simvastatin (0.04 μM) [1, 17]: 1.129; Complete Media [1, 18]: 0.9754; Difference [2, 6]: −0.62; Cholesterol-free [2, 7]: 1.469; Complete [2, 8]: 0.8441
Cc1ncc([N+](=O)[O-])n1CCOC(=O)c1ccccc1 [Metronidazole Benzoate] |  |  | −0.10 | −0.30 | 1.298 | 1.001 |  |  | Cholesterol-free media + simvastatin (0.04 μM) [1, 17]: 1.104; Complete Media [1, 18]: 1
Cc1ncc([N+](=O)[O-])n1CCO [Metronidazole] | 1.741 | 1.475 | −0.27 | −0.03 |  |  | 1.006 | 0.9754 | 
CC(C)(C(=O)c1cccnc1)c1cccnc1 [Metyrapone] |  |  |  |  | 1.096 | 0.7386 |  |  | Cholesterol-free media + simvastatin (0.04 μM) [1, 14]: 0.9563; Complete Media [1, 15]: 1.066; Difference [1, 16]: 0.11; Difference [2, 27]: −0.36
C[C@](N)(Cc1ccc(O)cc1)C(=O)O [Metyrosine] |  |  |  |  |  |  |  |  | Cholesterol-free media + simvastatin (0.04 μM) [1, 9]: 0.9769; Complete Media [1, 10]: 0.9769; Difference [1, 11]: 0.00; Difference [2, 25]: −0.10; Cholesterol-free [2, 23]: 1.606; Complete [2, 24]: 1.504
Cc1cccc(C)c1OCC(C)N (centres unmarked) [Mexiletine (hydrochloride)] |  |  | −0.12 | −0.20 | 1.086 | 0.8848 |  |  | Cholesterol-free media + simvastatin (0.04 μM) [1, 17]: 1.005; Complete Media [1, 18]: 0.8858
CC1(C)S[C@@H]2[C@H](NC(=O)[C@H](NC(=O)N3CCN(S(C)(=O)=O)C3=O)c3ccccc3)C(=O)N2[C@H]1C(=O)[O-].[Na+] [Mezlocillin (sodium)] |  |  | −0.26 |  |  |  | 0.8225 | 1.264 | Cholesterol-free media + simvastatin (0.04 μM) [1, 26]: 1.179; Complete Media ([1]; drug in complete media): 0.9159; Difference [2, 28]: 0.44
CN1CCN2c3ccccc3Cc3ccccc3C2C1 (centres unmarked) [Mianserin (hydrochloride)] |  |  | −0.10 |  |  |  | 1.049 |  | Cholesterol-free media + simvastatin (0.04 μM) [1, 17]: 1.121; Complete Media [1, 18]: 1.021; Difference [2, 28]: 0.13
CCCCCOc1ccc(-c2cc(-c3ccc(C(=O)N[C@H]4C[C@@H](O)[C@@H](O)NC(=O)[C@@H]5[C@@H](O)[C@@H](C)CN5C(=O)[C@H]([C@H](O)CC(N)=O)NC(=O)[C@H]([C@H](O)[C@@H](O)c5ccc(O)c(OS(=O)(=O)O)c5)NC(=O)[C@@H]5C[C@@H](O)CN5C(=O)[C@H]([C@@H](C)O)NC4=O)cc3)no2)cc1 [Micafungin (sodium)] (X1-[Orn(4R-OH,5R-OH)]T[Hyp][hTyr(3S-OH,4S-OH,3'-OSO3H)][Gln(3R-OH)][Pro(3S-OH,4S-Me)]; lactam 1-C) | 2.204 | 1.774 |  |  |  |  | 1.036 | 1.188 | Difference [1, 19]: −0.43; Difference ([2]; complete vs cholesterol-free media, […]): 0.15
CCC(=O)O[C@@H]1CC(=O)O[C@H](C)C/C=C/C=C/[C@H](O)[C@H](C)C[C@H](CC=O)[C@H](O[C@@H]2O[C@H](C)[C@@H](O[C@H]3C[C@@](C)(O)[C@@H](OC(=O)CC)[C@H](C)O3)[C@H](N(C)C)[C@H]2O)[C@H]1OC [Midecamycin] | 1.255 | 0.9149 | −0.34 |  |  |  | 1.021 | 1.536 | Difference [2, 28]: 0.52
COc1ccc(OC)c(C(O)CNC(=O)CN)c1 (centres unmarked) [Midodrine (hydrochloride)] | 2.06 | 1.752 | −0.31 |  |  |  | 0.6607 | 0.8643 | Difference [2, 28]: 0.20
CO[C@@H]1[C@H](N(C)C(=O)c2ccccc2)C[C@H]2O[C@]1(C)n1c3ccccc3c3c4c(c5c6ccccc6n2c5c31)C(=O)NC4 [Midostaurin] |  |  | −0.14 | 0.06 |  |  | 0.3336 | 0.3958 | Cholesterol-free media + simvastatin (0.04 μM) [1, 17]: 0.6712; Complete Media [1, 18]: 0.5312
CC#C[C@]1(O)CC[C@H]2[C@@H]3CCC4=CC(=O)CCC4=C3[C@@H](c3ccc(N(C)C)cc3)C[C@@]21C [Mifepristone] | 1.308 | 1.019 | −0.29 |  |  |  |  |  | Difference [2, 6]: −0.57; Cholesterol-free [2, 7]: 1.574; Complete [2, 8]: 0.9996
